Reference: PubChem BioAssay (NCI)
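Protocol summary: plate cells (96-well), add compound at 5 concentrations, incubate 48 h, interpolate endpoints linearly. Here, GI50 denotes the concentration required for 50% inhibition of growth. TGI: concentration producing complete growth inhibition.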

How the values were obtained:
Experiment in all cases: DTP human tumour cell line panel, 48 h
SK-OV-3 ovarian = system: SK-OV-3 ovarian
U251 CNS = system: U251 CNS
SF-539 CNS = system: SF-539 CNS
COLO 205 colon = system: COLO 205 colon
SK-MEL-28 melanoma = system: SK-MEL-28 melanoma
UACC-257 melanoma = system: UACC-257 melanoma
UACC-62 melanoma = system: UACC-62 melanoma
CCRF-CEM leukemia = system: CCRF-CEM leukemia
OVCAR-4 ovarian = system: OVCAR-4 ovarian
NCI/ADR-RES ovarian = system: NCI/ADR-RES ovarian

SMILES | TGI (SK-OV-3 ovarian) | TGI (U251 CNS) | TGI (SF-539 CNS) | TGI (COLO 205 colon) | TGI (SK-MEL-28 melanoma) | TGI (UACC-257 melanoma) | TGI (UACC-62 melanoma) | TGI (CCRF-CEM leukemia) | TGI (OVCAR-4 ovarian) | TGI (NCI/ADR-RES ovarian) | GI50 (SK-OV-3 ovarian) | GI50 (U251 CNS) | GI50 (SF-539 CNS) | GI50 (NCI/ADR-RES ovarian) | GI50 (COLO 205 colon) | GI50 (SK-MEL-28 melanoma) | GI50 (UACC-62 melanoma) | GI50 (OVCAR-4 ovarian) | GI50 (UACC-257 melanoma) | GI50 (CCRF-CEM leukemia)
COc1ccc(NC(=O)C(=O)C(C(=O)c2ccccc2)C2OC(=O)c3ccccc32)c([N+](=O)[O-])c1 (stereo not given) | > 100 µM | > 100 µM | > 100 µM | > 100 µM | > 100 µM | > 100 µM | > 100 µM | > 100 µM | > 100 µM | – | – | – | – | – | – | – | – | – | – | –
NC(=O)C(=Cc1ccc(C(O)P(=O)(O)O)cc1)C(N)=O (stereo not given) | > 100 µM | > 100 µM | > 100 µM | > 100 µM | > 100 µM | > 100 µM | > 100 µM | – | > 100 µM | – | – | – | – | – | – | – | – | – | – | –
Cc1[nH]c2ccccc2c1C1Cc2ccccc2N1C(=O)/C=C\C(=O)O (stereo not given) | > 100 µM | 70.7 µM | 75.2 µM | > 100 µM | – | 37.8 µM | 72.3 µM | 94.1 µM | > 100 µM | – | – | – | – | – | – | – | – | – | – | –
O=C(Nc1cc(Cl)c(Cl)cc1Cl)C(=O)C1C=CCS1(=O)=O (stereo not given) | > 100 µM | > 100 µM | > 100 µM | > 100 µM | > 100 µM | > 100 µM | > 100 µM | > 100 µM | > 100 µM | – | – | – | – | – | – | – | – | – | – | –
Cc1c(NC(=O)C(C)(C)Br)c(=O)oc2c(C)c3occc(=O)c3cc12 | – | > 100 µM | > 100 µM | > 100 µM | > 100 µM | > 100 µM | > 100 µM | > 100 µM | > 100 µM | – | – | – | – | – | – | – | – | – | – | –
CN1CCN(CCCN)CC1 | > 100 µM | > 100 µM | – | > 100 µM | > 100 µM | > 100 µM | > 100 µM | > 100 µM | > 100 µM | > 100 µM | – | – | – | – | – | – | – | – | – | –
Nc1ccc(N(S(=O)(=O)c2ccccc2)S(=O)(=O)c2ccccc2)c(Cl)c1 | – | > 100 µM | > 100 µM | > 100 µM | > 100 µM | > 100 µM | > 100 µM | – | > 100 µM | > 100 µM | – | – | – | – | – | – | – | – | – | –
CC(C)=CCCC(C)c1ccc(C)c2c1OCN(CC1CCNCC1)C2 (stereo not given) | 31.1 µM | 7.61 µM | 27.5 µM | 3.41 µM | 29.3 µM | – | 29.9 µM | – | 30.7 µM | 34.8 µM | 16.7 µM | 2.75 µM | 13.7 µM | 16.8 µM | 1.86 µM | 15.7 µM | 15.5 µM | 16 µM | – | –
CC(=O)OCC1OC(N2C(=O)C(=O)c3cc(C)ccc32)C(OC(C)=O)C(OC(C)=O)C1OC(C)=O (stereo not given) | > 100 µM | > 100 µM | > 100 µM | > 100 µM | 91.8 µM | > 100 µM | > 100 µM | > 100 µM | > 100 µM | – | – | – | – | – | – | – | – | – | – | –
CCOC(=O)c1cc(C#N)c(=O)n(/N=C(\C)c2ccncc2)c1O | > 100 µM | > 100 µM | – | > 100 µM | > 100 µM | > 100 µM | > 100 µM | > 100 µM | > 100 µM | > 100 µM | > 100 µM | > 100 µM | – | > 100 µM | > 100 µM | > 100 µM | > 100 µM | > 100 µM | > 100 µM | > 100 µM
O=S(=O)(N/N=C/c1ccc(/C=N/NS(=O)(=O)c2ccccc2)cc1)c1ccccc1 | > 100 µM | > 100 µM | 93.3 µM | 43.1 µM | > 100 µM | > 100 µM | 54.1 µM | 90.2 µM | > 100 µM | – | – | – | – | – | – | – | – | – | – | –
CCOC(=O)NC(=O)c1cn(CC(=O)NCC(=O)NCC(=O)NCCCN2CCN(CCCNC(=O)CNC(=O)CNC(=O)Cn3cc(C(=O)NC(=O)OCC)c(=O)[nH]c3=O)CC2)c(=O)[nH]c1=O | > 100 µM | > 100 µM | > 100 µM | > 100 µM | > 100 µM | > 100 µM | > 100 µM | > 100 µM | – | – | – | – | – | – | – | – | – | – | – | –
CC1=C(C(=O)Nc2ccccc2C)C(c2ccc(Cl)c(Cl)c2)C(C(=O)Nc2ccccc2C)=C(C)N1 | 81.4 µM | 40.5 µM | 49.6 µM | 30 µM | 71.1 µM | 50.7 µM | 39.2 µM | 54.8 µM | > 100 µM | – | – | – | – | – | – | – | – | – | – | –
CCCCCCCCC[C@@H]1CC(=O)OCC2OC(O[C@H](CCCCCCCCC)CC(=O)OCC3OC(O[C@H](CCCCCCCCC)CC(=O)OCC4OC(O1)C(O)C(O)C4O)C(O)C(O)C3O)C(O)C(O)C2O (stereo not given in full) | 26.5 µM | 21.4 µM | 23.2 µM | 8.3 µM | 18.6 µM | 24.2 µM | 28.6 µM | 19.4 µM | 32.3 µM | – | – | – | – | – | – | – | – | – | – | –
CCN(CC)CC(O)CNc1ccc(NCC2CO2)c2c1C(=O)c1ccccc1C2=O (stereo not given) | 9.64 µM | 19.6 µM | 3.08 µM | 4.38 µM | 3.5 µM | 4.04 µM | 2.3 µM | – | 3.3 µM | 0.815 µM | – | 0.373 µM | – | – | 0.581 µM | 0.631 µM | 0.426 µM | – | – | –
COc1cc2c(cc1OCCCOc1cc3c(cc1OC)C(=O)N1C[C@H](F)C[C@H]1C=N3)N=C[C@@H]1C[C@@H](F)CN1C2=O | 32.9 µM | 4.46 µM | – | 27.4 µM | 29.9 µM | – | 17.5 µM | 51.7 µM | 31.7 µM | 26 µM | 17.9 µM | 1.96 µM | – | 11.9 µM | 14.4 µM | 15.7 µM | 4.79 µM | 16.2 µM | – | 3.8 µM
Cc1cc(C)c([O-])c(CN(C)CCN(C)Cc2cc(C)cc(C)c2[O-])c1.O=C([O-])c1cccc(C(=O)[O-])n1.[Ti+4] | > 100 µM | > 100 µM | – | 5.01 µM | 8.37 µM | – | – | – | > 100 µM | > 100 µM | 3.54 µM | 2.92 µM | – | 2.71 µM | 2.4 µM | 2.42 µM | – | 2.87 µM | – | –
O=C1c2ccccc2-c2cccc3ccc(Cc4ccc5ccccc5c4)c1c23 | – | > 100 µM | > 100 µM | > 100 µM | > 100 µM | > 100 µM | > 100 µM | > 100 µM | > 100 µM | – | – | – | – | – | – | – | – | – | – | –
COc1ccc(N2C(=O)CC(Cl)C2=O)cc1 (stereo not given) | > 100 µM | > 100 µM | 32.5 µM | 30 µM | 30.2 µM | 29.7 µM | 46.5 µM | – | 34.3 µM | > 100 µM | – | – | – | – | – | – | – | – | – | –
